Tests used:
[1] = test system: BT549; test: Anchorage Independent Soft Agar Tumor Growth Assay, BT549; type: cell-based; details: percent of DMSO-treated control at Ymin plateau
Procedure: Cells were seeded into either a T-75 or a T-175 flask 3-4 days prior to 96-well assay plating such that the flasks were approximately 70-80% confluent of the time of harvest. Cells were harvested using 0.25% trypsin-EDTA (Invitrogen #25200056). Trypan Blue exclusion staining was used to determine cell number. Viable cells were plated in clear, flat bottom 96-well plates (BD #353075) under anchorage independent conditions at 2,000-10,000 cells per well depending on the cell line. To generate anchorage independent growth conditions, a 5% agar stock solution in water was made and autoclaved to melt and sterilize. From the 5% agar solution, a 0.6% agar/media+10% fetal bovine serum (FBS) solution was made to generate a bottom agar layer in the plates to prevent cell attachment. Seventy five microliters per well of the 0.6% agar-media solution was added to the plates. […] The next day one plate of cells was processed at the time of compound addition to quantify the starting number of cells (T=0 or T0). […] Following the 6-day incubation, 20 μl of Alamar Blue (Invitrogen #DAL1100) was added to the cells, incubated at 5% CO2 and 37° C. for 6 hours and the plates read on a Spectramax (Gemini EM) at 530 nm (excitation) and 590 nm (emission) with the auto cut-off disabled. […]

[2] = test system: WM-115; test: Anchorage Independent Soft Agar Tumor Growth Assay, WM-115; type: cell-based; details: percent of DMSO-treated control at Ymin plateau
Procedure: (§1) Twenty-two Phosphatase and Tensin Homolog (PTEN) wild-type or PTEN deficient tumor cell lines were cultured generally according to instructions supplied by cell culture supplier American Type Culture Collection, Manassas, Va., with 10% fetal bovine serum at 5% CO2 and 37° C. Cells were seeded into either a T-75 or a T-175 flask 3-4 days prior to 96-well assay plating such that the flasks were approximately 70-80% confluent of the time of harvest. Cells were harvested using 0.25% trypsin-EDTA (Invitrogen #25200056). Trypan Blue exclusion staining was used to determine cell number. Viable cells were plated in clear, flat bottom 96-well plates (BD #353075) under anchorage independent conditions at 2,000-10,000 cells per well depending on the cell line. To generate anchorage independent growth conditions, a 5% agar stock solution in water was made and autoclaved to melt and sterilize. […] The next day one plate of cells was processed at the time of compound addition to quantify the starting number of cells (T=0 or T0). […] Following the 6-day incubation, 20 μl of Alamar Blue (Invitrogen #DAL1100) was added to the cells, incubated at 5% CO2 and 37° C. for 6 hours and the plates read on a Spectramax (Gemini EM) at 530 nm (excitation) and 590 nm (emission) with the auto cut-off disabled. […]

[3] = test system: C32; test: Anchorage Independent Soft Agar Tumor Growth Assay, C32; type: cell-based; details: percent of DMSO-treated control at Ymin plateau
Procedure: as §1

[4] = test system: SW1783; test: Anchorage Independent Soft Agar Tumor Growth Assay, SW1783; type: cell-based; details: percent of DMSO-treated control at Ymin plateau
Procedure: as §1

[5] = test system: UM-UC-3; test: Anchorage Independent Soft Agar Tumor Growth Assay, UM-UC-3; type: cell-based; details: percent of DMSO-treated control at Ymin plateau
Procedure: as §1

[6] = test system: SW1088; test: Anchorage Independent Soft Agar Tumor Growth Assay, SW1088; type: cell-based; details: percent of DMSO-treated control at Ymin plateau
Procedure: as §1

[7] = test system: H4; test: Anchorage Independent Soft Agar Tumor Growth Assay, H4; type: cell-based; details: percent of DMSO-treated control at Ymin plateau
Procedure: as §1

[8] = test system: CHL-1; test: Anchorage Independent Soft Agar Tumor Growth Assay, CHL-1; type: cell-based; details: percent of DMSO-treated control at Ymin plateau
Procedure: as §1

[9] = test system: UACC-62; test: Anchorage Independent Soft Agar Tumor Growth Assay, UACC-62; type: cell-based; details: percent of DMSO-treated control at Ymin plateau
Procedure: as §1

[10] = test system: HCC19377; test: Anchorage Independent Soft Agar Tumor Growth Assay, HCC19377; type: cell-based; details: percent of DMSO-treated control at Ymin plateau
Procedure: as §1

[11] = test system: PC-3; test: Anchorage Independent Soft Agar Tumor Growth Assay, PC-3; type: cell-based, human; details: percent of DMSO-treated control at Ymin plateau
Procedure: as §1

[12] = test system: HCC70; test: Anchorage Independent Soft Agar Tumor Growth Assay, HCC70; type: cell-based; details: percent of DMSO-treated control at Ymin plateau
Procedure: as §1

[13] = test system: MDA-MB-468; test: Anchorage Independent Soft Agar Tumor Growth Assay, MDA-MB-468; type: cell-based; details: percent of DMSO-treated control at Ymin plateau
Procedure: as §1

[14] = test system: HCC1395; test: Anchorage Independent Soft Agar Tumor Growth Assay, HCC1395; type: cell-based; details: percent of DMSO-treated control at Ymin plateau
Procedure: as §1

[15] = test system: U-87MG; test: Anchorage Independent Soft Agar Tumor Growth Assay, U-87MG; type: cell-based; details: percent of DMSO-treated control at Ymin plateau
Procedure: as §1

[16] = test system: BT474; test: Anchorage Independent Soft Agar Tumor Growth Assay, BT474; type: cell-based; details: percent of DMSO-treated control at Ymin plateau
Procedure: as §1

[17] = test system: U251; test: Anchorage Independent Soft Agar Tumor Growth Assay, U251; type: cell-based; details: percent of DMSO-treated control at Ymin plateau
Procedure: as §1

[18] = test system: HCC1954; test: Anchorage Independent Soft Agar Tumor Growth Assay, HCC1954; type: cell-based; details: percent of DMSO-treated control at Ymin plateau
Procedure: as §1

[19] = test system: Colo205; test: Anchorage Independent Soft Agar Tumor Growth Assay, Colo205; type: cell-based; details: percent of DMSO-treated control at Ymin plateau
Procedure: as §1

[20] = test system: HCT-116; test: Anchorage Independent Soft Agar Tumor Growth Assay, HCT-116; type: cell-based; details: percent of DMSO-treated control at Ymin plateau
Procedure: as §1

[21] = test system: SKOV-3; test: Anchorage Independent Soft Agar Tumor Growth Assay, SKOV-3; type: cell-based; details: percent of DMSO-treated control at Ymin plateau
Procedure: as §1

[22] = test system: LOXIMVI; test: Anchorage Independent Soft Agar Tumor Growth Assay, LOXIMVI; type: cell-based; details: percent of DMSO-treated control at Ymin plateau
Procedure: as §1

[23] = test system: pAKT (pAKT/tAKT); test: Pharmacodynamic effects, pAKT in PC-3 xenograft tumors; type: in vivo, mouse; details: mice given 3 mg/kg or 10 mg/kg, 1-24 hours
Procedure: Female nude mice (Charles River Laboratories, Wilmington, Del.; strain CD-1-Foxn1, 6 weeks of age) were injected subcutaneously with 2 million PC-3 (human prostate carcinoma) cells mixed 1:1 with Matrigel in the flank. Tumors were allowed to grow for approximately 5 weeks. […] The tumor was excised. Half of each tumor was immediately processed by Medicon (BD Catalog #340592) in 1 mL Meso-Scale Discovery (MSD) lysis buffer with protease inhibitors (Roche complete protease cocktail, cat#04 693 116 001) and phosphatase inhibitors (Sigma, cat #P2850 and P-5726) for 30-60 seconds and transferred to 1.5 mL Eppendorf tubes. Tubes remained on wet ice until they were centrifuged for 10 minutes at 4° C. at maximum speed in a tabletop refrigerated centrifuge. Tumor lysates were serially diluted in 96-well polypropylene plates on wet ice. Lysates (150 μL) were loaded in row 1; rows 2-12 were loaded with 75 μL of complete Meso Scale Discovery (MSD) lysis buffer (supplied in MSD kit; #[…]-3). Samples were serially diluted 2-fold across the plate by sequential transfer of 75 μL through well 11; row 12 contained lysis buffer only. […] Plates were washed as described above, before the addition of 150 μL of MSD read buffer and read immediately on a 6000 MSD plate reader. […] P/T AKT was calculated as shown: (phospho AKT(Ser473) signal)/[(phospho AKT(Ser473) signal)+(total AKT signal)]. […]

Cc1c(Cn2c(C)nc3c(C(=O)O)cc(N4CCOCC4)cc32)cccc1C(F)(F)F [Example 31, 2-methyl-1-{[2-methyl-3-(trifluoromethyl)phenyl]methyl}-6-(4-morpholinyl)-1H-benzimidazole-4-carboxylic acid]
Ymin ± StDev [1]: 52 ± 7 | Ymin ± StDev [2]: 54 ± 14 | Ymin ± StDev [3]: 20 ± 14 | Ymin ± StDev [4]: 69 ± 4 | Ymin ± StDev [5]: 83 ± 29 | Ymin ± StDev [6]: 36 ± 8 | Ymin ± StDev [7]: 55 ± 18 | Ymin ± StDev [8]: 82 ± 2 | Ymin ± StDev [9]: 76 ± 18 | Ymin ± StDev [10]: 67 ± 8 | Ymin ± StDev [11]: 82 ± 13 | Ymin ± StDev [12]: 27 ± 8 | Ymin ± StDev [13]: 44 ± 6 | Ymin ± StDev [14]: 26 ± 9 | Ymin ± StDev [15]: 34 ± 18 | Ymin ± StDev [16]: 75 ± 3 | Ymin ± StDev [17]: 80 ± 17 | Ymin ± StDev [18]: >80 | Ymin ± StDev [19]: >80 | Ymin ± StDev [20]: >80 | Ymin ± StDev [21]: >80 | Ymin ± StDev [22]: >90 | inhibition of the pharmacodynamic marker pAKT (pAKT/tAKT) [23]: dose dependent inhibition

— US8541411B2, “Benzimidazole derivatives as PI3 kinase inhibitors” (GlaxoSmithKline LLC, priority 2010, dated 2013)
